The source of these data is patent publication US20200276181A1, “THIENOISOQUINOLINES AND THEIR DERIVATIVES FOR TARGETING TUBULIN, CH-TOG, AURORA A KINASE, TPX2, CDK5RAP2 AND/OR ASPM” (VALORBEC, SEC, priority 2017, published 2020).

Each structure is given as a SMILES string.

Assay [1] has as its system A549 cells. Kind of assay: Spindle morphology, DAPI and tubulin staining. The settings on record: 300 nM, 4 hours. It counts as cell-based, human. On the procedure:
FIG. 1A) is a line graph showing changes in the percentage of viable HFF-1, HeLa, A549 and HCT 116 cells after treatment with a range of C75 concentrations for 3 population doubling times (N=3). […] FIG. 1C) is a line graph showing the percentage of HeLa and HFF1 cells in mitosis after treatment with various concentrations of C75 for 8 hours. The bars indicate standard deviation. FIG. 1D) is a series of images showing cells that were fixed and co-stained for tubulin (microtubules) and DAPI (DNA). […] The scale bar for the cells is 10 μm. […] FIG. 1F) is a cartoon schematic showing the key features of a metaphase cell.

For assay [2], the target named is Aurora A kinase (Homo sapiens, UniProt O14965). The settings on record: in vitro; cited from earlier work.
The subject of assay [3] is A549 cells. Kind of assay: IC50 of derivatives (Table 5). It counts as cell-based, human. The settings on record: Table 5, cell line only named in b213 (A549).
Assay [4] has as its system HeLa cells. The assay can be described thus: Viability IC50, high-throughput automated analysis (Table 4). It counts as cell-based. Conditions: Homo sapiens, 3 population doubling times. Here is the method:
(§1) FIG. 1A) is a line graph showing changes in the percentage of viable HFF-1, HeLa, A549 and HCT 116 cells after treatment with a range of C75 concentrations for 3 population doubling times (N=3). […] There were more rounded mitotic cells after C75 treatment in comparison to the control. FIG. 1C) is a line graph showing the percentage of HeLa and HFF1 cells in mitosis after treatment with various concentrations of C75 for 8 hours. The bars indicate standard deviation. FIG. 1D) is a series of images showing cells that were fixed and co-stained for tubulin (microtubules) and DAPI (DNA). Treatment of HeLa cells with 300 nM C75 caused the mitotic spindles to be disorganized, while they were not affected in HFF1 cells. […] The scale bar for the cells is 10 μm. […] FIG. 1F) is a cartoon schematic showing the key features of a metaphase cell.
(§2) The images in FIG. 1B) show fields of view of HeLa cells treated with (dimethyl sulfoxide) DMSO or 500 nM of C75. […] Higher concentrations of C75 caused spindle phenotypes in HFF1 cells, but they were quite different in comparison to HeLa cells (FIG. 1D).

Assay [5] concerns A549 cells. The assay is described as above. It counts as cell-based. The settings on record: Homo sapiens, 3 population doubling times. On the procedure: as §1, §2
Assay [6] concerns HFF-1 cells. The description is as above. Conditions: Homo sapiens, 3 population doubling times. It counts as cell-based. Here is the method: as §1, §2
The subject of assay [7] is HCT 116 cells. Described as above. It counts as cell-based. Conditions: Homo sapiens, 3 population doubling times. On the procedure:
as §1, §2

Assay [8] has as its system MCF-7 (mammary gland carcinoma) cells. Kind of assay: Cell viability IC50 (Table 3). It counts as cell-based, human. The settings on record: MCF-7 cells. Here is the method:
(§3) To date, 30 variants with different structural modifications have been made. […] In particular, it is shown that C75 causes death in multiple cancer cells with IC50 values in the 100-400 nM range, including breast cancers (MCF7, BT549), lung cancer (A549), colorectal cancer (HCT116) in addition to HeLa cells (cervical cancer).

The test system of assay [9] is HeLa (cervical adenocarcinoma) cells. The assay can be described thus: Cell viability IC50 (Table 3). It counts as cell-based, human. On the procedure:
as §3

Assay [10] deals with BT549 (breast ductal carcinoma) cells. Kind of assay: Cell viability IC50 (Table 3). It counts as cell-based, human. Here is the method: as §3
The test system of assay [11] is MCF7, BT549, A549, HCT116, HeLa cells. Kind of assay: Viability in cancer vs non-cancer cell lines, summary of Table 3. It counts as cell-based, human. On the procedure:
as §3

Assay [12] concerns HFF1 (fibroblast) non-cancer cells. Kind of assay: Cell viability IC50 (Table 3). It counts as cell-based. The settings on record: HFF-1 non-cancer cells. On the procedure:
as §3

The test system of assay [13] is HeLa cells with lower levels of endogenous ch-TOG (ch-TOG RNAi). The assay can be described thus: Spindle phenotypes with ch-TOG RNAi. It counts as cell-based, human. Conditions: 200 nM C75 or 20 nM colchicine. An excerpt:
FIG. 7B) is a bar graph showing the proportion of phenotypes of the HeLa cells observed in the different conditions listed in 7A) (bipolar spindles in light grey; bipolar spindles with misaligned chromosomes in dark grey; multipolar/fragmented spindles in hatched lines; monopolar spindles in black).

The subject of assay [14] is HeLa cells with lower levels of endogenous MCAK (MCAK RNAi). The assay can be described thus: Spindle phenotypes with MCAK RNAi. It counts as cell-based, human. The settings on record: 300 nM C75 or 30 nM colchicine. The source says: FIG. 8B) is a bar graph showing the proportion of spindle phenotypes in HeLa cells treated as in 8A).
Since this is unique to C75, and ch-TOG RNAi was previously shown to be suppressed (partially) by MCAK RNAi, supporting C75's role in targeting ch-TOG or a component of the pathway.

For assay [15], the system named is HeLa cells in metaphase. Kind of assay: Short treatment and washout, spindle recovery. It counts as cell-based, human. Conditions: 5 minutes treatment, washout, imaged after 40 minutes. An excerpt: For each condition, 20,000 cells were counted per replicate (N=3). Line graphs (right) were made to better illustrate the relative changes in the cell cycle phases for the different treatments. Bars show standard deviation. The asterisks indicate the first statistically significant change in the G0/G1 and G2/M populations determined by a two-way ANOVA with a post-hoc Tukey's multiple comparisons test using 95% confidence intervals. FIG. 2B) is a line graph showing the percentage of HCT116 (p53−/−) cells, A549 cells, HeLa cells and H1299 cells in mitosis after treatment with various concentrations of C75 for one population doubling time. All of the cell lines show an increase in the proportion of mitotic cells after treatment with 200 nM C75. The bars indicate standard deviation. […]
C75 was also tested for efficacy in different cancer cell lines. […] To further assess the role of C75 in disrupting spindles, HeLa cells were treated with 300 nM C75 for 4 hours and the spindle phenotypes were analyzed in more detail (FIG. 2E). […] To assess the affect of C75 on centrosomes, HeLa cells were treated with C75 or nocodazole (a drug that causes microtubule depolymerization as a control) for a short period of time (5 minutes), then the drugs were removed and the cells were analyzed for spindle phenotypes (schematic in FIG. 2G). […]

In assay [16] the target is Purified free alpha and beta tubulin dimers (Homo sapiens, UniProt P07437+Q71U36). The settings on record: comparison drugs; cited from earlier work.

Sequence of Aurora A kinase (O14965 whole entry): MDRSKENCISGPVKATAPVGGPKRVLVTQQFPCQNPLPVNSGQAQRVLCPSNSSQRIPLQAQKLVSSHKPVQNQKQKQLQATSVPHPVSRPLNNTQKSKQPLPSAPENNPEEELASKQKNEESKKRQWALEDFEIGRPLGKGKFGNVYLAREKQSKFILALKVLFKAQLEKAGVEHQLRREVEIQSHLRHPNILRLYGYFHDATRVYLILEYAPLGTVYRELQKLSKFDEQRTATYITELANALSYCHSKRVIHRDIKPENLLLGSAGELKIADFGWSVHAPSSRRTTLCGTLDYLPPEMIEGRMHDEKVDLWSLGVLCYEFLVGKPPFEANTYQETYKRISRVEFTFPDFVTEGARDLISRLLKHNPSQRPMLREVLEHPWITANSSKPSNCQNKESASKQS

With `COc1cc(Nc2ncc3c(n2)-c2ccc(Cl)cc2C(c2c(F)cccc2OC)=NC3)ccc1C(=O)O` [Alisertib, reference compound], the spindle phenotype entry in assay [1] is “mitotic arrest and spindle phenotypes similar to what was observed for C75”. The “affinity for Aurora A kinase” value in assay [2] is roughly 1 nM.
Consider `O=S(=O)(c1cccs1)N1Cc2ccccc2-c2sccc21` [Compound C87], for which the concentration for half-maximal inhibition (IC50) in assay [3] (Homo sapiens), in assay [4], in assay [5], in [6] and in assay [7] was greater than 1000 nM each time.
For the compound `COc1ccc(S(=O)(=O)N2Cc3ccccc3-c3sccc32)cc1` [Compound C90], the IC50 (usually the midpoint of a concentration-inhibition curve) in [8] worked out at 149 nM; in assay [9], 177 nM; in [3], 781 nM.
In the case of `COc1ccc(S(=O)(=O)N2Cc3ccccc3-c3sc(I)cc32)cc1` [Compound C207], the IC50 in [8] was 86 nM; in [9], 70 nM; in [10], 178 nM; in [3], 433 nM; in assay [12] it was 150 nM. The “efficacy (effect on viability) in cancer cells vs. non-cancer cells” value in [11] is “higher efficacy”.
As to `COc1cc2c(c(OC)c1OC)-c1ccc(OC)c(=O)cc1[C@@H](NC(C)=O)CC2` [colchicine, reference compound], in assay [13], the “interaction with ch-TOG RNAi, fragmented spindle phenotype” value is listed as “synergistic”. Further, the “suppression of fragmented spindle phenotype by MCAK RNAi” value in [14] is listed as “not”.
Consider `COC(=O)Nc1nc2ccc(C(=O)c3cccs3)cc2[nH]1` [nocodazole, reference compound], for which, in [15], the “spindles reformed after drug removal” value is given as “bipolar spindles reformed”.
On to `CC[C@]1(O)C[C@@H]2CN(CCc3c([nH]c4ccccc34)[C@@](C(=O)OC)(c3cc4c(cc3OC)N(C)[C@H]3[C@@](O)(C(=O)OC)[C@H](OC(C)=O)[C@]5(CC)C=CCN6CC[C@]43[C@@H]65)C2)C1` [vinblastine], for which the “concentration causing a similar decrease of polymerization” value in assay [16] was roughly 5 µM.
